Test results from patent publication US10815247B2, “Functionalized NANOLUC inhibitors” (PROMEGA CORPORATION, priority 2016, dated 2020).
pIC50: −log10 of the molar value.

Each compound was assayed against NanoLuc (Oplophorus gracilirostris, UniProt Q9GV45, A31E/A60N/A81I/F95D/I117V/K70R/L54V/L99Q/M102K/N193R/P142E/Q151K/Q38R/Q45L/V71I/Y165I) (assay: Inhibitor IC50 determination).
NanoLuc, sequence (Q9GV45 28-196 with tags or gaps with the stated changes limits assumed): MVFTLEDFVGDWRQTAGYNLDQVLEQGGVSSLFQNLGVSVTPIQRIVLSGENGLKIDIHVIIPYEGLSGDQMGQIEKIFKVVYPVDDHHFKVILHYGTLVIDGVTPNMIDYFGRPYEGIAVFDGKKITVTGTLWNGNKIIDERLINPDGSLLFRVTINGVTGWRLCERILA
Assay type: biochemical
Protocol: The following example provides the IC50 values for the compounds disclosed herein. NANOLUC® enzyme was diluted to 0.4 ng/ml in CO2 independent media+10% FBS to make the detection reagent. A 3× dilution series of each inhibitor was then made in the detection reagent. A “no inhibitor” control was also made for each sample. 50 ul of each inhibitor dilution was mixed with 50 ul of NanoGlo® buffer containing 20 μM furimazine (final furimazine concentration is 10 μM, which is at Km.), and luminescence was measured. Each sample was normalized to the “no inhibitor” control. The IC50 values were then determined using GraphPad Prism (log[inhibitor] vs. normalized response).
In the case of CCN(C(=O)Cn1c(C(=O)N[C@H]2CC[C@H](C(=O)NCCCCCCNC(=O)c3ccc4c(c3)C(=O)OC43c4ccc(O)cc4Oc4cc(O)ccc43)CC2)cc2sccc21)c1cccc(C)c1 [JRW-0200, N-(trans-4-((6-(3′,6′-dihydroxy-3-oxo-3H-spiro[isobenzofuran-1,9′-xanthene]-5-carboxamido)hexyl)carbamoyl)cyclohexyl)-4-(2-(ethyl(m-tolyl)amino)-2-oxoethyl)-4H-thieno[3,2-b]pyrrole-5-carboxamide], the pIC50 was 7.31. Compound CCN(C(=O)Cn1c(C(=O)N[C@H]2CC[C@H](C(=O)OC)CC2)cc2sccc21)c1cccc(CBr)c1 [JRW-0466, methyl trans-4-(4-(2-((3-(bromomethyl)phenyl)(ethyl)amino)-2-oxoethyl)-4H-thieno[3,2-b]pyrrole-5-carboxamido)cyclohexane-1-carboxylate] has a pIC50 of 8.68. Compound CCN(C(=O)Cn1c(C(=O)N[C@H]2CC[C@H](C(=O)NCCCCCC(=O)NCCOCCOCCC(=O)ON3C(=O)CCC3=O)CC2)cc2sccc21)c1cccc(C)c1 [JRW-0520, 2,5-dioxopyrrolidin-1-yl 1-(trans-4-(4-(2-(ethyl(m-tolyl)amino)-2-oxoethyl)-4H-thieno[3,2-b]pyrrole-5-carboxamido)cyclohexyl)-1,8-dioxo-12,15-dioxa-2,9-diazaoctadecan-18-oate] has a pIC50 of 7.03. CCN(C(=O)Cn1c(C(=O)N[C@H]2CC[C@H](C(=O)NCCCCCC(=O)NCCOCCOCCOCCC(=O)ON3C(=O)CCC3=O)CC2)cc2sccc21)c1cccc(C)c1 [JRW-0525] gave a pIC50 of 7.08. CCN(C(=O)Cn1c(C(=O)N[C@H]2CC[C@H](C(=O)NCCCCCC(=O)NCCOCCOCCOCCOCCC(=O)ON3C(=O)CCC3=O)CC2)cc2sccc21)c1cccc(C)c1 [JRW-0533] gave a pIC50 of 7.04. Work on CCN(C(=O)Cn1c(C(=O)N[C@H]2CC[C@H](C(=O)NCCCCCCNC(=O)CCOCCOCCNC(=O)CCN3C(=O)C=CC3=O)CC2)cc2sccc21)c1cccc(C)c1 [JRW-0559] yielded a pIC50 of 7.48. With CCc1cccc(N(CC)C(=O)Cn2c(C(=O)N[C@H]3CC[C@H](C(=O)NCCCCCCCC(=O)OC)CC3)cc3ccccc32)c1 [JRW-0597, methyl 8-(trans-4-(1-(2-(ethyl(3-ethylphenyl)amino)-2-oxoethyl)-1H-indole-2-carboxamido)cyclohexane-1-carboxamido)octanoate] the pIC50 was 9.80. Work on CCc1cccc(N(CC)C(=O)Cn2c(C(=O)N[C@H]3CC[C@H](C(=O)NCCCCCCCC(=O)Oc4ccccc4)CC3)cc3ccccc32)c1 [JRW-0605, phenyl 8-(trans-4-(1-(2-(ethyl(3-ethylphenyl)amino)-2-oxoethyl)-1H-indole-2-carboxamido)cyclohexane-1-carboxamido)octanoate] yielded a pIC50 of 9.92. For CCc1cccc(N(CC)C(=O)Cn2c(C(=O)N[C@H]3CC[C@H](C(=O)NCCCCCCI)CC3)cc3ccccc32)c1 [JRW-0622, 1-(2-(ethyl(3-ethylphenyl)amino)-2-oxoethyl)-N-(trans-4-((6-iodohexyl)carbamoyl)cyclohexyl)-1H-indole-2-carboxamide], the pIC50 was 9.85. CCc1cccc(N(CC)C(=O)Cn2c(C(=O)N[C@H]3CC[C@H](C(=O)NCCCCCCBr)CC3)cc3ccccc32)c1 [JRW-0626, N-(trans-4-((6-bromohexyl)carbamoyl)cyclohexyl)-1-(2-(ethyl(3-ethylphenyl)amino)-2-oxoethyl)-1H-indole-2-carboxamide] gave a pIC50 of 9.70. Work on CCc1cccc(N(CC)C(=O)Cn2c(C(=O)N[C@H]3CC[C@H](C(=O)NCCCCCCNC(=O)c4ccc5c(c4)C(=O)OC54c5ccc(O)cc5Oc5cc(O)ccc54)CC3)cc3ccccc32)c1 [JRW-0818, N-(trans-4-((6-(3′,6′-dihydroxy-3-oxo-3H-spiro[isobenzofuran-1,9′-xanthene]-5-carboxamido)hexyl)carbamoyl)cyclohexyl)-1-(2-(ethyl(3-ethylphenyl)amino)-2-oxoethyl)-1H-indole-2-carboxamide] yielded a pIC50 of 8.92.
